Tested on: C3H cells
Experiment: Rodlet formation
Assay type: cell-based, mouse
Settings: 10-20 μM, 1 h

With `CC1=C[C@@H]2/C=C(\C)CC[C@H](O)[C@H](O)/C=C/C(=O)[C@]23C(=O)N[C@@H](CC(C)C)[C@@H]3[C@@H]1C` [AsD, Aspochalasin D] as the molecule, how does the “Number of rodlets within a single cell” value read?
The value was 1-127.

Reference: PMC2112011 (The Journal of Cell Biology, 1982)
